# Source: US20200405696A1, “INHIBITORS OF INDOLEAMINE 2,3-DIOXYGENASE AND/OR TRYPTOPHAN 2,3-DIOXYGENASE” (IDORSIA PHARMACEUTICALS LTD, priority 2018, published 2020)
# Legend:
# [1] = target: T1, Recombinant full-length human IDO1 (Homo sapiens, UniProt P14902); experiment: IDO1 enzymatic assay (NFK quantified by LCMS); type: biochemical; settings: 2 nM enzyme, 5 μM L-tryptophan, pH6.5, 30 minutes pre-incubation at RT; mean values when measured multiple times; read-out: hIDO activity (IC50 in nM)
# T1 construct: Recombinant full-length human IDO1 with a N-terminal hexahistidine tag; hexahistidine (His6) (N); made in house; host or cells: E. coli
# T1 sequence (P14902 whole entry): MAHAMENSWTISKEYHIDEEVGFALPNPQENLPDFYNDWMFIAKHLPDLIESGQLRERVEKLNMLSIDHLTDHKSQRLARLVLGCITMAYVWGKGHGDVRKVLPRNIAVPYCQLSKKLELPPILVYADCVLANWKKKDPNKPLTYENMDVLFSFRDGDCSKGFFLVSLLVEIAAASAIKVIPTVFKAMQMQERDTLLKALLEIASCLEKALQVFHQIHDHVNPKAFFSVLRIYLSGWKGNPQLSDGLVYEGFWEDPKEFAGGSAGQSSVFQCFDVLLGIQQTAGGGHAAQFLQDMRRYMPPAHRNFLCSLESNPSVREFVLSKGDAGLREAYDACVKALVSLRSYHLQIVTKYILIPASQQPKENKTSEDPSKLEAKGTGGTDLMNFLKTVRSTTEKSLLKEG
# In short: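 His-tagged human IDO1 (2 nM) in pH 6.5 phosphate buffer with ascorbate, methylene blue and catalase was preincubated with compound (10 μM–0.5 nM, 0.6% DMSO) for 30 min at RT. The reaction then ran with 5 μM L-Trp for 30 min. NFK was measured by LCMS against a d5-Trp standard, and IC50 was obtained by four-parameter fit.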
# [2] = target: T2, Recombinant human TDO comprising amino acids 19-407 (Homo sapiens, UniProt P48775); experiment: TDO2 enzymatic assay (NFK quantified by LCMS); type: biochemical; settings: 15 nM enzyme, 200 μM L-tryptophan, pH7, 30 minutes pre-incubation at RT; mean values when measured multiple times; read-out: hTDO activity (IC50 in nM)
# T2 construct: Recombinant human TDO comprising amino acids 19-407 with a N-terminal hexahistidine tag; hexahistidine (His6) (N); made in house; host or cells: E. coli
# T2 sequence (P48775 19-406 limits assumed): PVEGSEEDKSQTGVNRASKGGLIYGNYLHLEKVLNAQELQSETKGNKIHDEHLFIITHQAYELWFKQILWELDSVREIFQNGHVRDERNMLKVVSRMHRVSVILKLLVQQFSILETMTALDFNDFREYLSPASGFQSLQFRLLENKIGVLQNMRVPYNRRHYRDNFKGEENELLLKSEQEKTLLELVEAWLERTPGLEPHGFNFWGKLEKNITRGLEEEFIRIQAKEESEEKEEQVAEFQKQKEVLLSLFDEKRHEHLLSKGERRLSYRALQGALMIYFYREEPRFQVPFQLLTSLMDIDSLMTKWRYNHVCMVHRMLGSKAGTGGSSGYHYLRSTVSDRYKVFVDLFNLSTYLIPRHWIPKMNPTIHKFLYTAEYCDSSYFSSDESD
# In short: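 NFK formed over 30 min at RT from 200 μM L-tryptophan was measured by LCMS, normalized to d5-tryptophan, after compound (0.5 nM–10 μM, duplicates, 0.6% DMSO) was preincubated 30 min with 15 nM recombinant His-tagged TDO 19-407 in phosphate buffer pH 7. IC50 from four-parameter logistic fit; repeats averaged.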
IC50 [1] [nM],IC50 [2] [nM],SMILES
5.58,> 10200,"O[C@@H](c1cn(-c2ccc(OCC3(F)COC3)c(Cl)c2)nn1)c1c(C2CC2)sc2cncn12 [Example 282, (R)-{1-[3-Chloro-4-(3-fluoro-oxetan-3-ylmethoxy)-phenyl]-1H-[1,2,3]triazol-4-yl}-(2-cyclopropyl-imidazo[5,1-b]thiazol-3-yl)-methanol]"
7.31,> 10200,"CC(C)(O)COc1ccc(-n2cc([C@H](O)c3c(C4CC4)sc4cncn34)nn2)cc1Cl [Example 283, 1-(2-Chloro-4-{4-[(R)-(2-cyclopropyl-imidazo[5,1-b]thiazol-3-yl)-hydroxy-methyl]-[1,2,3]triazol-1-yl}-phenoxy)-2-methyl-propan-2-ol]"
